Data reported in paper PMC9610434, “Discovery of 2′,6-Bis(4-hydroxybenzyl)-2-acetylcyclohexanone, a Novel FtsZ Inhibitor” (Molecules, 2022).
Read-outs that look alike come from different tables or passages of the source.

Tests used:
[1] = system: Bacillus subtilis 168; parameters: method as in PMID 28002947; conditions: cited from earlier work
[2] = molecular target: T1, S. pneumoniae FtsZ (SpnFtsZ) (Streptococcus pneumoniae, UniProt A0A0H2ZNE0); conditions: cited from earlier work
[3] = system: Bacillus subtilis 168; experiment: Growth inhibition / MIC by agar dilution, Bacillus subtilis 168; format: cell-based
Experimental: (§1) The Minimum Inhibitory Concentration (MIC) was determined as described previously, following the agar dilution method. From an overnight culture of Bacillus subtilis 168 (Bs 168), 2% inoculation was performed to a fresh tube containing Luria Broth. When the bacteria reached an O.D600 = 0.4, the culture was serially diluted to a dilution factor of 10^4. Then, 20 μL of the diluted culture was spotted on plates containing different concentrations of 3 (0, 1, 3, 5, 7, 9, 10, 11, 12, 13 μM) and incubated, at 37 °C, for […], after which the colonies were counted. Similar procedure was performed for Streptococcus pneumoniae TIGR4. Bacteria were grown in Todd–Hewitt Yeast Broth up to 0.4 OD600 and serially diluted. Upon addition on to BHI agar plates containing different concentrations of 3 (0.5, 1, 1.5, 2, 3, 5, 7, 10 μM), the colonies were incubated for 24 h, at 37 °C, with 5% CO2. […] IC50 was determined by plotting percentage inhibition versus log of concentration of drug, using GraphPad Prism 7 software.

[4] = system: Streptococcus pneumoniae TIGR4; experiment: Growth inhibition / MIC by agar dilution, Streptococcus pneumoniae TIGR4; format: cell-based; conditions: for MIC: Streptococcus pneumoniae
Experimental: as §1

[5] = Cytotoxicity testing in mouse skin L929 cells; format: cell-based; conditions: read-out: GI50 (concentration for 50% cell growth inhibition)
[6] = system: Z-ring in Bs 168 cells; experiment: Immunostaining for Z-ring and nucleoid, Bs 168; format: cell-based, Bacillus subtilis; conditions: Bs 168, 8 μM, 10 min
Experimental: (§2) Immunostaining of Bs 168 cells was performed as described previously. Briefly, from an overnight culture of Bs 168, 2% inoculation was performed to a fresh tube containing Luria Broth. When the bacteria reached an O.D600 = 0.4, the culture was divided into two fractions. To one fraction, 8 μM 3 was added, and to another, an equal volume of DMSO. The cells were incubated at 37 °C under shaking conditions for 10 min. Cells were then fixed for 30 min with 2.8% formaldehyde and 0.04% glutaraldehyde. Cells were permeabilized using 0.1% Triton X-100 and then treated with 1 mg/mL lysozyme and 5 mM EDTA for 45 min. Treatment with 0.5% BSA for 30 min was performed to block non-specific binding sites. Then, 1 h treatment each with primary antibody, anti-FtsZ antibody raised in rabbit (1:50 dilution) and secondary antibody (1:400), Alexa Fluor^TM 594 goat anti-rabbit IgG (H+L) was performed. Nucleoid staining was performed with 1 µg/mL 4′-6-diamidino-2-phenylindole (DAPI) for 20 min. Images were captured using Confocal Laser Scanning Microscope—Carl Zeiss, LSM 780. Similar procedure was followed for Sp TIGR4, which was treated with 2 μM 3 for 1 h before following the above immunostaining procedure.

[7] = system: Z-ring in Sp TIGR4; experiment: Immunostaining for Z-ring and nucleoid, Sp TIGR4; format: cell-based, Streptococcus pneumoniae; conditions: Sp TIGR4, 2 μM, 1 h
Experimental: as §2

[8] = system: membrane of Bs 168 cells; experiment: Membrane staining of live cells with FM 4-64; format: cell-based, Bacillus subtilis; conditions: Bs 168, 8 μM, 10 min
Experimental: Membrane staining of live Bs 168 cells was performed using FM 4–64 stain [28]. Bs 168 cells were grown as described above and treated with 8 μM 3 or equivalent volume of DMSO for 10 min. Cells were pelleted down and resuspended in PBS containing 10 μg/mL FM-4–64 dye. After incubation for another 10 min under shaking conditions in the dark, the cells were washed with PBS to remove excess dye. The cells were then mounted on the slide pre-coated with poly-L-lysine and covered with a coverslip. Images were captured in Confocal Laser Scanning Microscope—Carl Zeiss, LSM 780.

[9] = system: S. pneumoniae TIGR4 cells; experiment: Scanning electron microscopy of cell morphology; format: cell-based, Streptococcus pneumoniae; conditions: Sp TIGR4, 2 μM, 1 h, SEM
Experimental: Sp TIGR4 was grown as described above and treated with 2 μM 3 or equivalent volume of DMSO for 1 h. The cells were then fixed with 2.8% formaldehyde and 0.04% glutaraldehyde and resuspended in PBS as described earlier. A small volume (5 μL) was spotted on an aluminium foil and allowed to air dry completely. Images were captured using Field Emission Gun-Scanning Electron Microscope (FEG-SEM) JSM-7600F.

[10] = molecular target: T1, S. pneumoniae FtsZ (SpnFtsZ); experiment: Binding to SpnFtsZ by tryptophan fluorescence
Experimental: The binding of 3 to SpnFtsZ was assessed using tryptophan fluorescence. The decrease in the fluorescence intensity of SpnFtsZ in the presence of 3 was measured. Then, 2 μM of SpnFtsZ in 50 mM PIPES pH 7.4, 50 mM KCl, was incubated with different concentrations of 3 (0.2, 0.5, 1, 1.5, 2, 3, 4, 5, 7, 10), at 25 °C, for 10 min. The fluorescence spectra were measured at an emission range of 310 nm to 410 nm, after excitation at 295 nm in JASCO FP-8300 spectrofluorometer. Due to the absorbance of 3 at 340 nm, inner filter correction was performed using the below equation:(1) Fcorrected=Fobserved∗antilog ODex+ODem/2
The binding constant, Kd, was determined using the following equation:(2) ∆F=∆Fmax×L/Kd+L
ΔF is the change in the fluorescence intensity of SpnFtsZ, ΔFmax is the maximal change in the fluorescence of SpnFtsZ when the receptor site is fully occupied, and [L] is the concentration of 3.

[11] = system: SpnFtsZ; experiment: FtsZ polymerization by light scattering at 400 nm; format: biochemical, Streptococcus pneumoniae; conditions: 10 μM SpnFtsZ, 1 mM GTP, increasing concentration
Experimental: SpnFtsZ (10 μM) in 50 mM PIPES pH 7.4, 50 mM KCl and 5 mM MgCl2 (PKM) buffer was incubated with different concentrations of 3 (0, 1, 2, 3, 5, 6, 7) for 20 min, at 25 °C. After the addition of 1 mM GTP, the polymerization was monitored for 600 s, at 37 °C, using light scattering at 400 nm in a JASCO FP-8300 spectrofluorometer.

[12] = system: SpnFtsZ; experiment: FtsZ sedimentation assay; format: biochemical, Streptococcus pneumoniae; conditions: 10 μM compound, 10 μM SpnFtsZ, p = 0.02
Experimental: SpnFtsZ (10 μM) in PKM buffer was incubated with different concentrations of 3 (0.5, 1, 3, 6, 10) for 20 min at 25 °C. The reaction mixture was allowed to polymerize by adding 1 mM GTP and incubated for 600 s, at 37 °C. The mixture was then subjected to ultra-centrifugation at 60,000 RPM for 30 min at 30 °C. The supernatant was collected and quantified using Bradford’s reagent. The amount of FtsZ present in the pellet was assessed by subtracting the supernatant concentration from the total protein [30].

[13] = system: SpnFtsZ; experiment: Transmission electron microscopy of SpnFtsZ filaments; format: biochemical, Streptococcus pneumoniae; conditions: 10 μM compound
Experimental: SpnFtsZ (10 μM) in PKM buffer was incubated without and with 10 μM 3 for 20 min, at 25 °C. The mixture was then polymerized by the addition of 1 mM GTP for 200 s, at 37 °C. Samples for EM were prepared on a fresh carbon–formvar-coated copper EM grid according to a previously described method. Imaging was performed the next day using JEOL JEM 1220 HRTEM (200 kV). ImageJ software was used to determine the length of the FtsZ filaments.

[14] = system: SpnFtsZ; experiment: Atomic force microscopy of SpnFtsZ filaments; format: biochemical, Streptococcus pneumoniae; conditions: 10 μM compound, 4 μM SpnFtsZ; control filaments 9.02 ± 5.2 nm
Experimental: Then, 4 μM SpnFtsZ in PKM buffer was incubated with or without 10 μM 3, for 20 min, at 25 °C. Upon addition of 1 mM GTP, FtsZ was polymerized for 300 s, at 37 °C. AFM samples were prepared according to a previously described method. Then, 20 μL of each sample was added onto the mica sheet and allowed to absorb on it for 15 min. The sheet was then washed with MilliQ and allowed to dry overnight. The samples were imaged the next day using MFP-3D BIO, Asylum Research USA.

[15] = molecular target: T2, FtsZ from Bacillus subtilis (BsFtsZ) (Bacillus subtilis, UniProt P17865); experiment: Transmission electron microscopy of BsFtsZ filaments; format: biochemical; conditions: 20 μM compound, 5 μM BsFtsZ
T2 construct: made in house
Experimental: In another experiment, BsFtsZ (5 μM) in PKM buffer was incubated without and with 20 μM 3 for 20 min, at 25 °C. The mixture was then polymerized by the addition of 1 mM GTP for 600 s, at 37 °C. Samples for imaging were prepared using the same procedure described above.

[16] = system: tubulin; experiment: Tubulin polymerization assay; format: biochemical, goat; conditions: 13 μM tubulin, light scattering at 350 nm
Experimental: Streptococcus pneumoniae FtsZ (SpnFtsZ) and Bacillus subtilis FtsZ (BsFtsZ) were purified as described previously. Tubulin from goat brain was purified as described previously. The concentration of all the proteins was estimated using Bradford’s reagent.
Tubulin polymerization was performed as described previously. Purified tubulin (13 μM) in PEM buffer (50 mM PIPES pH 6.8, 3 mM MgCl2 and 1 mM EGTA) + 10% DMSO was incubated with 3 for 10 min on ice. Then, 1 mM GTP was added to the mixture, and polymerization was monitored by light scattering in SoftMax Spectra Multi Plate reader for 30 min, at 37 °C. The excitation and emission wavelengths were set to 350 nm.

[17] = system: alkaline phosphatase; experiment: Alkaline phosphatase activity assay; format: biochemical; conditions: 5, 10 and 20 μM, PNPP substrate
Experimental: Alkaline phosphatase assay was performed as described previously. Then, 2 U/mL Alkaline Phosphatase enzyme in glycine NaOH buffer, pH 10.4 with 100 mM glycine, 1 mM MgCl2, and 0.1 mM ZnCl2 was incubated with different concentrations (5, 10, and 20 μM) of 3 for 10 min on ice. Immediately after the addition of 250 μM para-4-nitrophenyl phosphate (PNPP), the absorbance at 410 nm was measured for 700 s in a JASCO V-730 spectrophotometer.

[18] = system: S. pneumoniae; parameters: method as in PMID 18801997; conditions: cited from earlier work

T1 sequence (A0A0H2ZNE0 whole entry): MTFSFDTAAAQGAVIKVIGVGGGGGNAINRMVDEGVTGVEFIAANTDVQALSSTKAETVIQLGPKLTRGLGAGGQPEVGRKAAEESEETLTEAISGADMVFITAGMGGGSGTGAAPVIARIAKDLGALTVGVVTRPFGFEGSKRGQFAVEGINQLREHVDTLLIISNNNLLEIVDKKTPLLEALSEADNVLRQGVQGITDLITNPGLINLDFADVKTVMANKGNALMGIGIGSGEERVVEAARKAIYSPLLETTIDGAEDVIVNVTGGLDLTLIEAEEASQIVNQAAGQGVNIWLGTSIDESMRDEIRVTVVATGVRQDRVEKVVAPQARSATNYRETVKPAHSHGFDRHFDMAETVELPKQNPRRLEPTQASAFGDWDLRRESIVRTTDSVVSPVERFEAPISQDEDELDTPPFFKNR
T2 sequence (P17865 whole entry): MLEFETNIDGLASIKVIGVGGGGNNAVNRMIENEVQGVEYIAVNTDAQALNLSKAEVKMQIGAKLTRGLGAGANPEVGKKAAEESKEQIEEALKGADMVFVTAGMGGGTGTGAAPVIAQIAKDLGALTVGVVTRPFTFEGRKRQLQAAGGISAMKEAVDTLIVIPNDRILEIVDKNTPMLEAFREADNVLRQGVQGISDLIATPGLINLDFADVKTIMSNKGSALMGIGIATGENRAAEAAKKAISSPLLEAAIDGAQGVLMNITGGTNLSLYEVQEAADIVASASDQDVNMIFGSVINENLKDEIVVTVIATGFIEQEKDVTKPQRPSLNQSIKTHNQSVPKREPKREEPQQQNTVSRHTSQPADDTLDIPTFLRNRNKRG

SMILES: O=C(/C=C/c1ccc(O)cc1)C1CCC/C(=C\c2ccc(O)cc2)C1=O (centres unmarked) [Compound 1]
- melting point: 225 to 227 °C
- IC50 ([1]; Bs168): 1.2 ± 0.5 µM
- MIC ([1]; Bs168 cells): 2.0 to 4.0 µg/mL
- Kd [2]: 4 ± 1.1 µM

SMILES: O=C(CCc1ccc(O)cc1)c1cccc(Cc2ccc(O)cc2)c1O [Compound 2, 1-{2-Hydroxy-3-(4-hydroxybenzyl)phenyl}-3-(4-hydroxyphenyl)propan-1-one]
- inhibition at 15 µM ([3]; Bacillus subtilis, 168, treatment with 15 µM, read-out: inhibition of growth of B. subtilis (Bs168)): 21.5 ± 0.5%

SMILES: O=C(CCc1ccc(O)cc1)[C@@H]1CCC[C@H](Cc2ccc(O)cc2)C1=O [Compound 3, 2-(4-Hydroxybenzyl)-6-{3-(4-hydroxyphenyl)propanoyl}cyclohexan-1-one]
- MIC ([3]; Bacillus subtilis, 168, 6 h, Bs168, agar dilution, 6 h, 37 °C, read-out: MIC): 11 µM
- MIC ([3]; Bacillus subtilis, 168, Bs168 cells, converted from µM, read-out: MIC (equivalent)): ≤ 3.5 µg/mL
- IC50 ([3]; Bacillus subtilis, 168, Bs168, inhibition of proliferation): 4.97 ± 0.01 µM
- IC50 ([4]; Streptococcus pneumoniae TIGR4, inhibition of proliferation): 1 ± 0.01 µM
- MIC ([4]; TIGR4, 24 h, Streptococcus pneumoniae TIGR4, agar dilution, 24 h, read-out: MIC): 2 µM
- MIC ([4]; TIGR4, S. pneumoniae, converted from µM, read-out: MIC (equivalent)): ≤ 0.7 µg/mL
- GI50 [5]: 7 ± 2.35 µM
- effect on nucleoid separation ([6]; DAPI): no effect on the nucleoid separation
- dividing cells with a prominent Z-ring ([6]; control 35 ± 17%): 3 ± 3%
- effect on nucleoid separation ([7]; DAPI): no effect on the nucleoid separation
- percentage of cells without a Z-ring ([7]; control 50%): 73%
- effect on cell membrane [8]: remains intact
- effect on cell morphology and membrane [9]: no changes in the morphology
- Kd [10]: 2.2 ± 0.3 µM
- effect on FtsZ polymerization (light scattering) [11]: inhibits FtsZ polymerization
- reduction of FtsZ pellet compared to control [12]: 17%
- FtsZ aggregation (TEM) ([13]; 10 μM SpnFtsZ): large aggregates were seen throughout the grid
- length of FtsZ filaments (TEM) ([13]; control 2.1 ± 1.2 μm): 0.7 ± 0.6 μm
- average height of FtsZ aggregates (AFM) [14]: 233.2 ± 151.2 nm
- BsFtsZ aggregation (TEM) [15]: large aggregates of BsFtsZ
- inhibition of tubulin polymerization [16]: no significant inhibition
- inhibition of alkaline phosphatase activity [17]: no detectable inhibitory activity

SMILES: NC(=O)c1c(F)ccc(OCc2nc3cc(Cl)cnc3s2)c1F [PC190723 4, PC190723]
- MIC [18]: more than 64 µg/mL
- MIC ([18]; converted from µg/mL): > 180 µM
